# Results: patent US20240139190A1, “NOVEL ANTIPARASITIC COMPOUNDS AND METHODS” (The Board of Regents of The University of Texas System, priority 2019, published 2024)
# What was measured:
# [1] = system: L. amazonensis axenic amastigotes; test: alamarBlue viability / concentration-response assay, axenic amastigotes; format: cell-based, Leishmania amazonensis; details: Leishmania amazonensis, 72 h, L. amazonensis, stage not stated; read-out: EC50^72 h for La
# Procedure: Leishmania amazonensis axenic amastigotes (100 μL, 2×10^6 cells/mL) were added to 96-multiwell plates containing 100 μL of amastigote culture medium with an appropriate compound dilution series. 0.1% DMSO (no drug) served as a positive control (100%), and 5 μM amphotericin B served as a negative growth control (0%). Only internal wells were used to minimize edge effects from evaporation. Axenic amastigotes were incubated at 32° C. with a compound/drug for 72 h prior to measurement. Similarly, the cytotoxicity of each compound was determined against RAW 264.7 cells and HepG2 cell lines, following 72 h incubation at 37° C. (promastigotes at 26° C.).
# 10% alamarBlue® (Thermo Fisher Scientific) was used to measure the growth of both parasite and mammalian cells. Conversion from a blue oxidized state to a pink reduced state was assessed visually at 6 hr. The fluorescence signal was measured with a BioTek Synergy H1 plate reader (530 nm excitation, 570 nm emission). For bioluminescence assays using L. amazonensisluc, relative luminescence units (RLU) were measured using Britelite Plus (PerkinElmer, USA). Luminescence produced by this luciferase reaction is proportional to the amount of luciferase-expressing, viable L. amazonensisluc. Following five-minute incubation at room temperature, the luminescence was measured with a BioTek Synergy H1 plate reader.
# All experiments were conducted as three technical triplicates on the same plate, with at least three independent biological repeats of each plate performed. For all assays, percent growth was expressed as a proportion of the untreated (positive) control (i.e. 100%) and plotted against drug/compound concentration. The concentration was then log10 transformed and EC50 values were determined using nonlinear regression (sigmoidal dose-response/variable slope equation) in GraphPad Prism v5.0 (GraphPad Software, Inc., San Diego, CA).
# To identify antileishmanial compounds, a microplate-based alamarBlue® assay was used to quickly triage the 400 drug-like compounds available in the MMV Pathogen Box collection. […] A three-step process was used to screen the Pathogen Box: 1) identify hits against axenic amastigotes, 2) confirm the inhibitory concentrations of these hits against axenic amastigotes, 3) evaluate hits for potency against intracellular parasites using fluorescence and bioluminescence-based intracellular assays. The MMV Pathogen Box resource was tested at two concentrations (5 μM and 1 μM, 72 h endpoint) on axenic amastigotes.
# Hits were defined as compounds that, at a concentration of 1 μM, decreased the relative fluorescence intensity signal to ≤70% of that produced by parasites incubated in vehicle (0.06% DMSO) only (FIG. 9).
# [2] = target: purified L. tarentolae tubulin (Leishmania tarentolae, UniProt A0A640KCM0+A0A640KQN0); test: Tubulin polymerization turbidity assay, Leishmania tubulin; format: biochemical
# Procedure: L. tarentolae (Parrot strain from ATCC) tubulin was purified. Briefly, promastigotes of L. tarentolae were grown to a high density (˜1×10^8 cells/mL), harvested, and resuspended in PME+P buffer containing 100 mM piperazine N, N′-bis (2-ethanesulfonic acid) (PIPES) buffer (pH 6.9), 1 mM glycol ether diamine tetraacetic acid (EGTA), 1 mM MgCl2, 1 mM benzamidine, 0.5 mM phenylmethylsulfonyl fluoride, 25 μg/ml leupeptin. The resulting suspension was extensively sonicated on ice with a probe sonicator (Misonix), cooled on ice for 30 minutes and centrifuged at 40,000×g for 1 hour at 4° C. using an ultracentrifuge (Beckman, Fullerton, CA). The resulting supernatant was filtered through a glass wool or 0.45-micron filter before loading into an equilibrated DEAE-Sepharose Fast Flow matrix (Amersham Biosciences). The column was washed with two column volumes of PME+P and subsequently four column volumes PME+P containing 0.1 M KCl and 0.25 M glutamate (pH 6.9). Tubulin was eluted with two column volumes PME+P containing 0.3 M KCl and 0.75 M glutamate (pH 6.9), and tubulin-rich fractions were confirmed by tubulin polymerization assays. The assembly-competent tubulin was pooled together and diluted into 1×PME buffer, 2 mM GTP, 10 mM MgCl2 and 8% DMSO (v/v). Tubulin was incubated in this buffer for 45 minutes at 30° C. to promote assembly, centrifuged at 50,000×g at 30° C. for 30 min, and re-suspended in 1 mL of ice-cold PME. […] Purity was assessed by SDS-PAGE and Coomassie Blue.
# Tubulin polymerization assays were performed in 96-well half-area microplates (Costar) in a final volume of 100 μL. […] The absorbance at 340 nm was recorded in a Synergy H1 microplate reader (BioTek) for up to 45 min at 37° C. […]
# To determine whether MMV676477 directly regulates microtubule assembly, assembly-competent tubulin from Leishmania tarentolae was purified and analyzed (FIG. 5A). […] 3 mg/mL purified L. tarentolae tubulin (3 mg/mL) was treated with serial dilutions of MMV676477 while the absorbance was measured at 340 nm over time.
# [3] = target: T1, purified porcine tubulin (Sus scrofa, UniProt P02550+P02554); test: Tubulin polymerization turbidity assay, mammalian tubulin; format: biochemical
# T1 construct: purchased Cytoskeleton, Inc. T240
# Procedure: Tubulin polymerization assays were performed in 96-well half-area microplates (Costar) in a final volume of 100 μL. Briefly, Leishmanial or porcine tubulin (>99% pure, Cat. #T240, Cytoskeleton, Inc.) in 50 μL volume was pre-treated with drugs on ice for 5 minutes before adding 50 μL ice cold buffer, to provide a final concentration of 3 mg/ml tubulin in 80 mM PIPES pH 6.9, 2 mM MgCl2, 0.5 mM EGTA, 1 mM GTP, and 1% DMSO unless specified otherwise. The absorbance at 340 nm was recorded in a Synergy H1 microplate reader (BioTek) for up to 45 min at 37° C. (porcine tubulin) or 30° C. (L. tarentolae tubulin).
# (§1) To determine the selectivity of MMV676477, purified porcine tubulin was exposed to a serial dilution of the drug (0 to 25 μM) and absorbance was measured at 340 nm over time. […] To ensure that the absorbance seen at 340 nm reflected microtubule formation and not precipitation, a fluorescent microtubule assembly assay was employed.
# [4] = system: cellular tubulin of L. amazonensis; test: Polymerized vs. unpolymerized tubulin in parasites (differential centrifugation, western blot); format: cell-based, Leishmania amazonensis; details: 24 h at EC50^72 h, densitometry
# Description: (§2) One reason why MMV676477 might affect parasite cell division is that, like paclitaxel, it might affect microtubule polymerization, either directly or indirectly. The degree to which MMV676477 affected microtubules polymerization in cells was examined. […] Centrifugation of these extracts allowed separation of insoluble polymeric (pellet) and soluble dimeric (supernatant) tubulin. […] The intensity of α-tubulin staining was examined by normalizing it to the intensity of a membrane protein (gp46 for promastigotes in FIG. 4D; p8 for amastigotes in FIG. 4E).
# [5] = system: L. amazonensis promastigotes and amastigotes; test: Tubulin intensity by confocal immunofluorescence microscopy; format: cell-based, Leishmania amazonensis; details: 24 h at EC50^72 h
# Procedure: Promastigotes or amastigotes were treated with the indicated compound concentrations and allowed to adhere to poly-L-lysine coated plates. All cells were fixed with 4% paraformaldehyde and permeabilized/blocked with 0.01% Triton X-100 and 2% BSA in PBS. Promastigotes and amastigotes were incubated with mouse anti-gp46 or anti-p8, respectively at 1:50 or 1:1000 and rat anti-alpha-tubulin antibody at 1:1000. Samples were then probed with A568 anti-mouse and […] secondary antibodies (Molecular Probes). DNA was labeled with Hoescht. Samples were visualized on a Zeiss LSM 880 Inverted confocal Airyscan microscope at 63×; full Z-thicknesses through parasites were obtained. […] For microscopic analysis of mitotic arrest, at least 200 parasites were analyzed per condition per experiment after 48 hrs incubation at compounds' EC50, and the average plus standard error for three experiments was calculated. Representative images were selected from the maximal intensity projections and linearly processed in Adobe Photoshop CS6.
# as §2
# [6] = target: T1, purified porcine tubulin; test: Fluorescent microtubule assembly assay; format: biochemical; details: mammalian tubulin, fluorescence micrographs
# Procedure: as §1
compound,measurement,setting,value
CC(=O)O[C@H]1C(=O)[C@@]2(C)[C@H]([C@H](OC(=O)c3ccccc3)[C@]3(O)C[C@H](OC(=O)[C@H](O)[C@@H](NC(=O)c4ccccc4)c4ccccc4)C(C)=C1C3(C)C)[C@]1(OC(C)=O)CO[C@@H]1C[C@@H]2O [paclitaxel],EC50,[1],760 nM
same,EC50,[2],1300 nM
same,EC50,"[3]; 3 mg/ml tubulin, 1% DMSO, A340",1500 ± 200 nM
same,"Maximum absorbance (A340, 10% DMSO)",[3]; mammalian tubulin,0.36
same,proportion of cellular polymeric tubulin,[4],significantly increased the proportion of cellular polymeric tubulin
same,tubulin intensity over control (DMSO-treated),[5],significant two-fold increase in tubulin intensity
same,microtubules formed vs control,[6],many more microtubules were formed
